Source: patent publication US20250066377A1, “AMINO CHROMEN-2-ONE MODULATORS OF POLRMT” (Pretzel Therapeutics, Inc., priority 2021, published 2025)

Target: POLRMT (Homo sapiens (Human), UniProt O00411)
Assay: POLRMT homogeneous TR-FRET mitochondrial transcription assay
Assay type: biochemical
Settings: inhibition of POLRMT; TR-FRET detection of 407 bp RNA transcript; 7.5 nM POLRMT, 15 nM TFB2M, 30 nM TFAM, 60 minutes at 37° C.
Protocol: The inhibitory activity of the compounds of the present invention against POLRMT were determined by assays based on Bergbrede, T., et al., “An adaptable high-throughput technology enabling the identification of specific transcription modulators,” SLAC Discov., 22, 378-386 (2017).
The ability of some compounds of the present invention to inhibit POLRMT were determined in a homogeneous TR-FRET Assay using high-throughput screening in a 384-well plate format. This method is used to monitor the activity of mitochondrial transcription through measurement of its product, a 407 bp long RNA transcript. Detection of the product is facilitated by hybridization of two DNA-oligonucleotide probes to specific and adjacent sequences within the RNA product sequence. Upon annealing of the probes, two fluorophores are coupled directly to an acceptor nucleotide probe (ATTO647, 5′), or introduced via a coupled streptavidin with a biotinylated donor nucleotide probe (Europium cryptate) that is brought into sufficient proximity to serve as a fluorescence-donor-acceptor pair. Thus, a FRET signal at 665 nm is generated upon excitation at 340 nm.
Proteins used as transcription factors (POLRMT: NP_005026.3, TFAM: NP_003192.1, TFB2M: NP_071761.1) are diluted from their stocks to working concentrations of 1 μM, 20 μM and 4 μM respectively, in a dilution buffer containing 20 mM Tris-HCl (pH 8.0), 200 mM NaCl, 10% (v/v) glycerol, 1 mM Dithiothreitol (DTT), 0.5 mM EDTA.
DNA template is a pUC18 plasmid with the mitochondrial light strand promotor sequence (1-477) cloned between HindIII and BamHI sites. The DNA template is restriction linearized proximal to the promotor 3′-end (pUC-LSP).
The reaction mixture (10 uL) containing 7.5 nM POLRMT, 15 nM of TFB2M, 30 nM of TFAM, 0.5 nM of DNA template and 500 μM nucleotide triphosphate mix (NTPs) in a reaction buffer (containing 10 mM Tris-HCl (pH 7.5), 10 mM MgCl2, 40 mM NaCl, 10 mM DTT, 0.005% (w/v) Tween-20, 160 units/ml Rnase inhibitor and 0.1 mg/mL BSA) are dispensed to compounds in microplates, using a Thermo Multidrop® dispenser, and incubated at 37° C. in a VWR INCU-Line incubator for 60 minutes after mixing. No nucleotide triphosphate mix is added to negative control samples. Microplates with compounds to be tested in the assay are prepared from 10 mM compound stocks in 100% DMSO, equal amounts of DMSO without any compound are added to positive control and negative control samples.
During the incubation, a mix of the detection reagents is prepared in a buffer such that the enzymatic reaction is terminated due to chelating of Mg-ions and increased ionic strength, containing 50 mM Tris-HCl (pH 7.5), 700 mM NaCl, 20 mM EDTA, and 0.01% (w/v) Tween-20. Europium-streptavidin is pre-incubated with a 200-fold molar excess of a random sequence oligonucleotide to block unspecific binding of oligo, for two hours at ambient temperature in the dark. Afterwards, the blocked Europium-streptavidin is kept on ice until use.
At the end of the enzymatic reaction time, 5 μL detection oligo mix in the detection buffer is added, and assay plates are mixed and kept at ambient temperature for one hour, protected from light. The concentration of the Acceptor nucleotide oligo (e.g., ATTO647N-5′-[…]-3′) and Donor nucleotide oligo (e.g., bio-5′-AACACATCTCT(-bio)GCCAAACCCCA-bio-3′) in each assay well is 1 nM, and 3 nM, respectively.
After incubation with oligo mix, 5 μL of pre-blocked Europium-streptavidin reagent is dispensed to each assay well, assay plates are again mixed and kept at ambient temperature for one hour, protected from light.
The generated signal is measured with BMG Pherastar microtiter plate reader with a TRF light unit, using excitation at 340 nm, an integration time of 200 μs, and a delay time of 100 μs, before detection at 620 nm and 665 nm. The ratio of donor- and acceptor-fluorescence is used as a measure of the generated transcript product (i.e. enzymatic activity).

Sequence of POLRMT (O00411 42-1230): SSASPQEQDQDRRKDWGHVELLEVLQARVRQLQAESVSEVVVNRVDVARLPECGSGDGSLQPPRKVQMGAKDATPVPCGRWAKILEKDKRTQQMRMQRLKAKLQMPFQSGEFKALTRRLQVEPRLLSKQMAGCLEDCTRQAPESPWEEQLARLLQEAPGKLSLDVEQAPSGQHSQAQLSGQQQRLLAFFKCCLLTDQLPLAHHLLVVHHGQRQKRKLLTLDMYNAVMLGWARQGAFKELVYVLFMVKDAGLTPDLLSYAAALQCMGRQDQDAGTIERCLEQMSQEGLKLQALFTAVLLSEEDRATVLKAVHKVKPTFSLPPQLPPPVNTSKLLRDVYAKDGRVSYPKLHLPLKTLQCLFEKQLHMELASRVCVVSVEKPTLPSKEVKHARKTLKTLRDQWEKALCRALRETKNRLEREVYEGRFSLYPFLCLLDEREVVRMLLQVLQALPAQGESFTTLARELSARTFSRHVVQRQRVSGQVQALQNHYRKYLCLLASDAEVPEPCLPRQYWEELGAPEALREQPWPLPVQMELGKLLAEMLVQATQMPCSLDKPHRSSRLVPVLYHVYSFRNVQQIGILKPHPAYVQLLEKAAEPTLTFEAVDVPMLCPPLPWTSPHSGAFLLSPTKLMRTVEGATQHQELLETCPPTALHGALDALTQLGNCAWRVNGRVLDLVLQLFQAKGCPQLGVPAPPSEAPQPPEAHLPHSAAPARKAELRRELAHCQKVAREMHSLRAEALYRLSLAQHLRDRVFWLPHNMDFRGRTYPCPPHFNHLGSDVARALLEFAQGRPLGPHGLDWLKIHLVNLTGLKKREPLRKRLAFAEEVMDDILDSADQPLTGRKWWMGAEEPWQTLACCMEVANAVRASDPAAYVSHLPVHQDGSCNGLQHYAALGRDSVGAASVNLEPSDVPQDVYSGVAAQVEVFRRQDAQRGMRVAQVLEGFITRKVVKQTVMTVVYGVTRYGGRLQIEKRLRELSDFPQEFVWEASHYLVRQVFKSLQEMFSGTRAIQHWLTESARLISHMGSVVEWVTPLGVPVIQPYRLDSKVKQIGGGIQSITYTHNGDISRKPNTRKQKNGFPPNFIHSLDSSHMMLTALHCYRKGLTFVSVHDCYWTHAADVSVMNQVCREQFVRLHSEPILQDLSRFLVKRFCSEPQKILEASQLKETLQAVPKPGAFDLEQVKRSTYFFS

Question: How did the IC50 turn out when `Cc1ccccc1-c1cc(=O)oc2nc(N3CCC(F)C3)ccc12` (centres unmarked) [Example 18, 7-(3-fluoropyrrolidin-1-yl)-4-(o-tolyl)-2H-pyrano[2,3-b]pyridin-2-one] was run?
Answer: 1000 nM

Question: With `Cc1ccccc1-c1cc(=O)oc2nc(N(C)C(C)C(N)=O)ccc12` (single isomer, unassigned) [Example 49, 2-(methyl(2-oxo-4-(o-tolyl)-2H-pyrano[2,3-b]pyridin-7-yl)amino)propanamide] as the compound, how does the IC50 read?
Answer: 1000 nM

Question: With `COC1CN(c2ccc3c(-c4ccccc4C)cc(=O)oc3n2)C1` [Example 20, 7-(3-methoxyazetidin-1-yl)-4-(o-tolyl)-2H-pyrano[2,3-b]pyridin-2-one] as the compound, how does the IC50 read?
Answer: 2000 nM

Question: How did the IC50 turn out when `COC1CCN(c2ccc3c(-c4ccc(F)cc4Cl)cc(=O)oc3n2)C1` (single isomer, unassigned) [Example 26, 4-(2-chloro-4-fluorophenyl)-7-(3-methoxypyrrolidin-1-yl)-2H-pyrano[2,3-b]pyridin-2-one] was run?
Answer: 21000 nM

Question: With `CNC(=O)CCN(C)c1ccc2c(-c3ccc(F)cc3Cl)cc(=O)oc2n1` [Example 47, 3-((4-(2-chloro-4-fluorophenyl)-2-oxo-2H-pyrano[2,3-b]pyridin-7-yl)(methyl)amino)-N-methylpropanamide] as the compound, how does the IC50 read?
Answer: 57000 nM

Question: `Cc1ccccc1-c1cc(=O)oc2nc(N3CCC(C(=O)O)C3)ccc12` (single isomer, unassigned) [Example 33, 1-(2-oxo-4-(o-tolyl)-2H-pyrano[2,3-b]pyridin-7-yl)pyrrolidine-3-carboxylic acid] was tested. Which IC50 did it give?
Answer: 7000 nM

Question: With `COC1CCN(c2ccc3c(-c4ccccc4C)cc(=O)oc3n2)C1` (single isomer, unassigned) [Example 23, 7-(3-methoxypyrrolidin-1-yl)-4-(o-tolyl)-2H-pyrano[2,3-b]pyridin-2-one] as the compound, how does the IC50 read?
Answer: 90 nM

Question: How did the IC50 turn out when `Cc1ccccc1-c1cc(=O)oc2nc(N3CCCC3C(=O)O)ccc12` (single isomer, unassigned) [Example 37, 1-(2-oxo-4-(o-tolyl)-2H-pyrano[2,3-b]pyridin-7-yl)pyrrolidine-2-carboxylic acid] was run?
Answer: 200 nM

Question: For `O=c1cc(-c2ccc(F)cc2Cl)c2ccc(N3CCOCC3)nc2o1` [Example 21, 4-(2-chloro-4-fluorophenyl)-7-morpholino-2H-pyrano[2,3-b]pyridin-2-one], which IC50 is on record?
Answer: 3000 nM

Question: Which IC50 does the source give for `Cc1ccccc1-c1cc(=O)oc2nc(N(C)CCC(=O)O)ccc12` [Example 41, 3-[methyl-[4-(o-tolyl)-2-oxo-pyrano[2,3-b]pyridin-7-yl]amino]propanoic acid] here?
Answer: 7000 nM

Question: How did the IC50 turn out when `CC(=O)NC1CCN(c2ccc3c(-c4ccccc4C)cc(=O)oc3n2)C1` (centres unmarked) [Example 22, N-(1-(2-oxo-4-(o-tolyl)-2H-pyrano[2,3-b]pyridin-7-yl)pyrrolidin-3-yl)acetamide] was run?
Answer: 3000 nM

Question: With `Cc1ccccc1-c1cc(=O)oc2nc(N3CCC(C)(O)C3)ccc12` (racemic) [Example 13, 7-(3-hydroxy-3-methylpyrrolidin-1-yl)-4-(o-tolyl)-2H-pyrano[2,3-b]pyridin-2-one] as the compound, how does the IC50 read?
Answer: 300 nM

Question: `Cc1ccccc1-c1cc(=O)oc2nc(N3CCC(C(=O)O)C3)ccc12` (single isomer, unassigned) [Example 34, 1-(2-oxo-4-(o-tolyl)-2H-pyrano[2,3-b]pyridin-7-yl)pyrrolidine-3-carboxylic acid] was tested. Which IC50 did it give?
Answer: 20000 nM

Question: Which IC50 does the source give for `COCC1CCN(c2ccc3c(-c4ccccc4C)cc(=O)oc3n2)C1` (racemic) [Example 12, 7-(3-(methoxymethyl)pyrrolidin-1-yl)-4-(o-tolyl)-2H-pyrano[2,3-b]pyridin-2-one] here?
Answer: 900 nM

Question: With `Cc1ccccc1-c1cc(=O)oc2nc(N3CCN(C)C(=O)C3)ccc12` [Example 11, 7-(4-methyl-3-oxopiperazin-1-yl)-4-(o-tolyl)-2H-pyrano[2,3-b]pyridin-2-one] as the compound, how does the IC50 read?
Answer: 47000 nM

Question: With `Cc1ccccc1-c1cc(=O)oc2nc(N3CCC(C(N)=O)C3)ccc12` (single isomer, unassigned) [Example 29, 1-(2-oxo-4-(o-tolyl)-2H-pyrano[2,3-b]pyridin-7-yl)pyrrolidine-3-carboxamide] as the compound, how does the IC50 read?
Answer: 7000 nM

Question: Which IC50 does the source give for `Cc1ccccc1-c1cc(=O)oc2nc(N3CCCC3)ccc12` [Example 03, 7-(pyrrolidin-1-yl)-4-(o-tolyl)-2H-pyrano[2,3-b]pyridin-2-one] here?
Answer: 200 nM

Question: `Cc1cccc(C)c1-c1cc(=O)oc2nc(N3CCC[C@@H]3C(=O)O)ccc12` [Example 51, (4-(2,6-dimethylphenyl)-2-oxo-2H-pyrano[2,3-b]pyridin-7-yl)-D-proline] was tested. Which IC50 did it give?
Answer: 100 nM

Question: How did the IC50 turn out when `COCC1CCN(c2ccc3c(-c4ccccc4C)cc(=O)oc3n2)C1` (single isomer, unassigned) [Example 32, 7-(3-(methoxymethyl)pyrrolidin-1-yl)-4-(o-tolyl)-2H-pyrano[2,3-b]pyridin-2-one] was run?
Answer: 1000 nM

Question: Which IC50 does the source give for `CC(=O)N1CCN(c2ccc3c(-c4ccccc4C)cc(=O)oc3n2)CC1` [Example 06, 7-(4-acetylpiperazin-1-yl)-4-(o-tolyl)-2H-pyrano[2,3-b]pyridin-2-one] here?
Answer: > 100000 nM

Question: `CNC(=O)CN(C)c1ccc2c(-c3ccc(F)cc3Cl)cc(=O)oc2n1` [Example 45, 2-((4-(2-chloro-4-fluorophenyl)-2-oxo-2H-pyrano[2,3-b]pyridin-7-yl)(methyl)amino)-N-methylacetamide] was tested. Which IC50 did it give?
Answer: 1000 nM

Question: How did the IC50 turn out when `COCCN(C)c1ccc2c(-c3ccccc3C)cc(=O)oc2n1` [Example 04, 7-((2-methoxyethyl)(methyl)amino)-4-(o-tolyl)-2H-pyrano[2,3-b]pyridin-2-one] was run?
Answer: 2000 nM

Question: How did the IC50 turn out when `Cc1ccccc1-c1cc(=O)oc2nc(N(C)CC(N)=O)ccc12` [Example 40, 2-[methyl-[4-(o-tolyl)-2-oxo-pyrano[2,3-b]pyridin-7-yl]amino]acetamide] was run?
Answer: 500 nM

Question: How did the IC50 turn out when `Cc1ccccc1-c1cc(=O)oc2nc(N3CCC3)ccc12` [Example 19, 7-(azetidin-1-yl)-4-(o-tolyl)-2H-pyrano[2,3-b]pyridin-2-one] was run?
Answer: 300 nM

Question: With `CN(CC(N)=O)c1ccc2c(-c3ccc(F)cc3Cl)cc(=O)oc2n1` [Example 46, 2-((4-(2-chloro-4-fluorophenyl)-2-oxo-2H-pyrano[2,3-b]pyridin-7-yl)(methyl)amino)acetamide] as the compound, how does the IC50 read?
Answer: 2000 nM

Question: `Cc1ccccc1-c1cc(=O)oc2nc(N3CCOCC3C)ccc12` (single isomer, unassigned) [Example 14, 7-(3-methylmorpholino)-4-(o-tolyl)-2H-pyrano[2,3-b]pyridin-2-one] was tested. Which IC50 did it give?
Answer: 400 nM
